Measured values taken from ChEMBL document CHEMBL1135876, “N-alkylaminoacids and their derivatives interact with melanocortin receptors” (Bioorg Med Chem Lett, 2002).

How the values were obtained:
[1] = target: Melanocortin receptor 3 (Homo sapiens, UniProt P41968); assay: Binding affinity in competition with [125I]NDP-MSH on recombinant melanocortin 3 receptor
[2] = target: T1, Melanocyte-stimulating hormone receptor (Homo sapiens, UniProt Q01726); assay: Binding affinity in competition with [125I]NDP-MSH on recombinant melanocortin 1 receptor
T1 sequence (Q01726 whole entry): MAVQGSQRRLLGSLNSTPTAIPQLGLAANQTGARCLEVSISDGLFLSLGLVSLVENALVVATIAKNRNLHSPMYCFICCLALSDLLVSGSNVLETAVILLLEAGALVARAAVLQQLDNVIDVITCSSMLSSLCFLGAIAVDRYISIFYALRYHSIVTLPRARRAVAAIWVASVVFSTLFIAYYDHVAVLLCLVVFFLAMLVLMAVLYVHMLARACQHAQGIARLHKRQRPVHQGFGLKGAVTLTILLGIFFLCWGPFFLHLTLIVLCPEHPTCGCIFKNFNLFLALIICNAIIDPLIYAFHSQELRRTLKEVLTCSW

[3] = target: T2, Melanocortin receptor 5 (Homo sapiens, UniProt P33032); assay: Binding affinity in competition with [125I]NDP-MSH on recombinant melanocortin 5 receptor
T2 sequence (P33032 whole entry): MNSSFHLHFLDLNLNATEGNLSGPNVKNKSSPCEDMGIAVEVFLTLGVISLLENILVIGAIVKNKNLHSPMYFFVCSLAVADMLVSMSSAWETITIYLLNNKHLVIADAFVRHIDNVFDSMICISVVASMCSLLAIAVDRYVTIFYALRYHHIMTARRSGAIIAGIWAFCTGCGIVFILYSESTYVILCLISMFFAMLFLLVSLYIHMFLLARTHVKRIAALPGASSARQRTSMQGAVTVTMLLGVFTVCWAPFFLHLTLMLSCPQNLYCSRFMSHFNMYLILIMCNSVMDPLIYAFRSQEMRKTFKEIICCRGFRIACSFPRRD

[4] = target: Melanocortin receptor 4 (Homo sapiens, UniProt P32245); assay: Binding affinity in competition with [125I]NDP-MSH on recombinant melanocortin 4 receptor
Melanocortin receptor 4, sequence (P32245 whole entry): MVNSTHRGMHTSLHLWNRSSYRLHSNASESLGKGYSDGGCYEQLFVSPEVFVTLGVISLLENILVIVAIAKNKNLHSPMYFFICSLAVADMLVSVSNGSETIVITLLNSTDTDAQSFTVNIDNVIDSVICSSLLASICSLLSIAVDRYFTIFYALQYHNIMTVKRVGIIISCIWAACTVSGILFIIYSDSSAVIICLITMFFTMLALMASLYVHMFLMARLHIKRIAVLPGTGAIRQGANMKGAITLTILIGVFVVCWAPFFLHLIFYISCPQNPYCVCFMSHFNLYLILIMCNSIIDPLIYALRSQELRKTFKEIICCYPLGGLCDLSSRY

[5] = target: T2, Melanocortin receptor 5; assay: Tested for its binding affinity in competition with [125I]NDP-MSH on recombinant Melanocortin 5 receptor; nb = no binding
[6] = target: T1, Melanocyte-stimulating hormone receptor; assay: Tested for its binding affinity in competition with [125I]NDP-MSH on recombinant human Melanocortin 1 receptor; nb = no binding

Melanocortin receptor 3, sequence (P41968 whole entry): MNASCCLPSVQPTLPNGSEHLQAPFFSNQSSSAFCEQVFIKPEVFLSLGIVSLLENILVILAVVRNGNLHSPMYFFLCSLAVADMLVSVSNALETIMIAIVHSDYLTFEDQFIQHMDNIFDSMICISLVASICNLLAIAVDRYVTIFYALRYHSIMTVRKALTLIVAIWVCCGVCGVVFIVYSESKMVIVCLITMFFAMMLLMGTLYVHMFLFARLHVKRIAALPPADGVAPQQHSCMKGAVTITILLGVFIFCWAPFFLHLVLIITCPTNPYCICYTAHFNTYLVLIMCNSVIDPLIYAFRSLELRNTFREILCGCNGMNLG

**Q.** How did the Ki [1] turn out when `NC(N)=NCCCC(NCc1c[nH]c2ccccc12)C(=O)O` (centres undefined) was run?
**A.** > 1 µM

**Q.** And the Ki [2]?
**A.** > 1 µM

**Q.** What about the Ki [3] of the same compound?
**A.** > 1 µM

**Q.** And the Ki [4]?
**A.** > 1 µM

**Q.** With `N=C(N)NCCC[C@H](NCc1ccc2ccccc2c1)C(=O)Nc1cccc2ccccc12` as the compound, how does the Ki [1] read?
**A.** 6.4 µM

**Q.** And the Ki [2]?
**A.** 1.3 µM

**Q.** And the Ki [3]?
**A.** 8.7 µM

**Q.** And the Ki [4]?
**A.** 6.8 µM

**Q.** How did the Ki [1] turn out when `NC(N)=NCCCNC(=O)[C@@H]1C[C@H](O)CN1Cc1ccc2ccccc2c1` was run?
**A.** 82 µM

**Q.** What about the Ki [2] of the same compound?
**A.** 2.9 µM

**Q.** And the Ki [3]?
**A.** 221 µM

**Q.** What about the Ki [4] of the same compound?
**A.** 279 µM

**Q.** `C=CCOC(=O)[C@H](CCCNC(=N)N)NCc1ccc2ccccc2c1` was tested. Which Ki [1] did it give?
**A.** 28 µM

**Q.** What about the Ki [2] of the same compound?
**A.** 5.9 µM

**Q.** What about the Ki [3] of the same compound?
**A.** 15 µM

**Q.** And the Ki [4]?
**A.** 15 µM

**Q.** Which Ki [1] does the source give for `N=C(N)NCCC[C@H](NCc1ccc2ccccc2c1)C(=O)Nc1ccc2ccccc2c1` here?
**A.** 14 µM

**Q.** What about the Ki [2] of the same compound?
**A.** 2.9 µM

**Q.** And the Ki [3]?
**A.** 6.6 µM

**Q.** And the Ki [4]?
**A.** 14 µM

**Q.** With `NC(N)=NCCC[C@@H](NCc1c[nH]c2ccccc12)C(=O)O` as the compound, how does the Ki [1] read?
**A.** > 1 µM

**Q.** And the Ki [2]?
**A.** > 1 µM

**Q.** What about the Ki [3] of the same compound?
**A.** > 1 µM

**Q.** What about the Ki [4] of the same compound?
**A.** > 1 µM

**Q.** Which results are given for `COc1ccc(CN[C@H](CCCNC(=N)N)C(=O)O)c(Cl)c1OC`?
**A.** Ki [1]: > 1 µM; Ki [2]: > 1 µM; Ki [3]: > 1 µM; Ki [4]: > 1 µM

**Q.** Which results are given for `COc1ccc(CN[C@H](CCCNC(=N)N)C(=O)O)cc1OC`?
**A.** Ki [1]: > 1 µM; Ki [2]: > 1 µM; Ki [3]: > 1 µM; Ki [4]: > 1 µM

**Q.** Which results are given for `COc1ccc(CNC(CCCN=C(N)N)C(=O)O)cc1OC` (centres undefined)?
**A.** Ki [1]: > 1 µM; Ki [2]: > 1 µM; Ki [3]: > 1 µM; Ki [4]: > 1 µM

**Q.** With `O=C(NCc1ccc2ccccc2c1)[C@H]1CCCN1CCc1c[nH]c2ccccc12` as the compound, how does the Ki [1] read?
**A.** 752 µM

**Q.** What about the Ki [5] of the same compound?
**A.** Not Active

**Q.** And the Ki [4]?
**A.** 166 µM

**Q.** What about the Ki [6] of the same compound?
**A.** Not Active

**Q.** For `N=C(N)NCCC[C@@H](NCc1ccc2ccccc2c1)C(N)=O`, which Ki [1] is on record?
**A.** > 1000 µM

**Q.** What about the Ki [2] of the same compound?
**A.** > 1000 µM

**Q.** And the Ki [3]?
**A.** 125 µM

**Q.** What about the Ki [4] of the same compound?
**A.** > 1000 µM

**Q.** How did the Ki [1] turn out when `N=C(N)NCCC[C@H](NCc1c[nH]c2ccccc12)C(=O)N[C@@H](Cc1c[nH]c2ccccc12)C(N)=O` was run?
**A.** > 1000 µM

**Q.** And the Ki [2]?
**A.** > 1000 µM

**Q.** What about the Ki [3] of the same compound?
**A.** 184 µM

**Q.** What about the Ki [4] of the same compound?
**A.** 205 µM

**Q.** `N=C(N)NCCC[C@H](NCc1c[nH]c2ccccc12)C(N)=O` was tested. Which Ki [1] did it give?
**A.** > 1 µM

**Q.** What about the Ki [2] of the same compound?
**A.** > 1 µM

**Q.** And the Ki [3]?
**A.** > 1 µM

**Q.** What about the Ki [4] of the same compound?
**A.** > 1 µM

**Q.** What does the source list for `N=C(N)NCCC[C@H](NCc1ccc2ccccc2c1)C(N)=O`?
**A.** Ki [1]: > 1 µM; Ki [2]: > 1 µM; Ki [3]: > 1 µM; Ki [4]: > 1 µM

**Q.** How did the Ki [1] turn out when `N=C(N)NCCCNC(=O)[C@H](CCCN=C(N)N)NCc1ccc2ccccc2c1` was run?
**A.** 4.8 µM

**Q.** What about the Ki [2] of the same compound?
**A.** 4.5 µM

**Q.** And the Ki [5]?
**A.** Not Active

**Q.** What about the Ki [4] of the same compound?
**A.** 30 µM

**Q.** With `NC(=O)[C@H](Cc1ccc2ccccc2c1)NCc1c[nH]c2ccccc12` as the compound, how does the Ki [1] read?
**A.** > 1000 µM

**Q.** What about the Ki [2] of the same compound?
**A.** 26 µM

**Q.** And the Ki [3]?
**A.** 60 µM

**Q.** What about the Ki [4] of the same compound?
**A.** > 1000 µM

**Q.** How did the Ki [1] turn out when `N=C(N)NCCC[C@@H](NCc1ccc2ccccc2c1)C(=O)N[C@@H](Cc1c[nH]c2ccccc12)C(N)=O` was run?
**A.** 147 µM

**Q.** And the Ki [2]?
**A.** 32 µM

**Q.** What about the Ki [3] of the same compound?
**A.** 56 µM

**Q.** What about the Ki [4] of the same compound?
**A.** 56 µM

**Q.** How did the Ki [1] turn out when `N=C(N)NCCC[C@H](NCC1CCc2ccccc2C1)C(N)=O` (some centres undefined) was run?
**A.** 155 µM

**Q.** What about the Ki [2] of the same compound?
**A.** > 1000 µM

**Q.** And the Ki [3]?
**A.** 130 µM

**Q.** And the Ki [4]?
**A.** 134 µM

**Q.** Which results are given for `N=C(N)NCCC[C@H](NCc1ccc2ccccc2c1)C(=O)N[C@@H](Cc1c[nH]c2ccccc12)C(N)=O`?
**A.** Ki [1]: 107 µM; Ki [2]: 29 µM; Ki [3]: 74 µM; Ki [4]: 105 µM

**Q.** Which results are given for `N=C(N)NCCC[C@@H](NCc1c[nH]c2ccccc12)C(N)=O`?
**A.** Ki [1]: > 1 µM; Ki [2]: > 1 µM; Ki [3]: > 1 µM; Ki [4]: > 1 µM

**Q.** With `COc1ccc(CN[C@@H](CCCNC(=N)N)C(N)=O)c(Cl)c1OC` as the compound, how does the Ki [1] read?
**A.** > 1 µM

**Q.** And the Ki [2]?
**A.** > 1 µM

**Q.** What about the Ki [3] of the same compound?
**A.** > 1 µM

**Q.** And the Ki [4]?
**A.** > 1 µM

**Q.** What does the source list for `O=C(NCCc1c[nH]cn1)[C@@H]1C[C@H](O)CN1Cc1ccc2ccccc2c1`?
**A.** Ki [1]: 161 µM; Ki [3]: 50 µM; Ki [4]: 150 µM; Ki [6]: Not Active

**Q.** How did the Ki [1] turn out when `NC(=O)[C@@H](Cc1c[nH]c2ccccc12)NCc1ccc2ccccc2c1` was run?
**A.** 53 µM

**Q.** What about the Ki [2] of the same compound?
**A.** 15 µM

**Q.** And the Ki [3]?
**A.** 37 µM

**Q.** What about the Ki [4] of the same compound?
**A.** 64 µM

**Q.** Which results are given for `NC(=O)[C@@H](Cc1ccc2ccccc2c1)NCc1c[nH]c2ccccc12`?
**A.** Ki [1]: > 1000 µM; Ki [2]: 74 µM; Ki [3]: 95 µM; Ki [4]: > 1000 µM

**Q.** What does the source list for `COc1ccc(CN[C@@H](CCCN=C(N)N)C(N)=O)cc1OC`?
**A.** Ki [1]: > 1 µM; Ki [2]: > 1 µM; Ki [3]: > 1 µM; Ki [4]: > 1 µM

**Q.** Which results are given for `NC(=O)[C@H](Cc1c[nH]c2ccccc12)NCc1ccc2ccccc2c1`?
**A.** Ki [1]: 56 µM; Ki [2]: 8.7 µM; Ki [3]: 42 µM; Ki [4]: 139 µM
